PubChem BioAssay (NCI)
In brackets after ≈: the same amount, converted by molar mass.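 Step 1: Grow cells in 96-well plates. Step 2: Expose to compound for 48 hours at 5 concentrations. Step 3: Interpolate endpoints linearly; if unreached, use highest concentration. GI50 marks 50% less growth. Definition used: TGI = concentration required for complete inhibition of growth.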

Assays:
Assay in all cases: growth of human tumour cells (NCI), 48 h
[1] = system: UO-31 renal
[2] = system: SN12C renal
[3] = system: MALME-3M melanoma
[4] = system: KM12 colon
[5] = system: SF-295 CNS
[6] = system: SK-MEL-5 melanoma
[7] = system: OVCAR-4 ovarian
[8] = system: MDA-MB-435
[9] = system: BT-549 breast
[10] = system: T-47D breast

Row | Compound | TGI [1] | TGI [2] | TGI [3] | TGI [4] | TGI [5] | TGI [6] | TGI [7] | TGI [8] | TGI [9] | TGI [10] | GI50 [1] | GI50 [7] | GI50 [4] | GI50 [5] | GI50 [9]
1 | O=C1OCc2nc3c(c(-c4ccccc4C(F)(F)F)c21)C(=O)OC3 | > 100 µM | > 100 µM | > 100 µM | > 100 µM | > 100 µM | > 100 µM |  |  |  |  |  |  |  |  | 
2 | O=[N+]([O-])c1ccc(N=P(c2ccccc2)(c2ccccc2)c2ccccc2)n2nnnc12 | > 100 µM | > 100 µM | > 100 µM | > 100 µM | 90.2 µM | > 100 µM | 90.3 µM |  |  |  |  |  |  |  | 
3 | COc1ccc2nc(-c3ccc(N)cc3)sc2c1 | > 100 µM |  | > 100 µM | > 100 µM | > 100 µM | > 100 µM | > 100 µM | > 100 µM | > 100 µM |  |  |  |  |  | 
4 | Cc1c(CCCl)c(Cl)n2c(nc3ccccc32)c1C#N | 2.56 µM | 1.5 µM | 2.62 µM | 2.54 µM | 4.34 µM | 2.35 µM | 3.29 µM | 2.22 µM | 3.98 µM |  |  |  |  |  | 
5 | COC(=O)[C@@H]1CN(C(=O)Cc2ccccc2)C(=O)N1 | > 100 µM | > 100 µM | > 100 µM | > 100 µM | > 100 µM | > 100 µM | > 100 µM | > 100 µM |  | > 100 µM |  |  |  |  | 
6 | Cc1nc2nnc(CCCCCCCCc3nnc4nc(C)[nH]n34)n2[nH]1 | > 100 µM | > 100 µM | > 100 µM | > 100 µM | > 100 µM | > 100 µM | > 100 µM | > 100 µM | > 100 µM |  |  |  |  |  | 
7 | CC/C(CC(=O)CCC(=O)Nc1ccc(C)c(C)c1)=N\NC(=O)c1cc2ccccc2cc1O | > 100 µM | > 100 µM | 92.6 µM | > 100 µM | > 100 µM |  | > 100 µM |  |  |  |  |  |  |  | 
8 | COc1cc2c(c(O)c1OC)C(O)C1CCC(=O)N1C2c1ccc2c(c1)OCO2 (centres undefined) | > 100 µM | > 100 µM | > 100 µM | > 100 µM | > 100 µM |  | > 100 µM | > 100 µM | > 100 µM | > 100 µM |  |  |  |  | 
9 | Cc1c2ccncc2c(C)c2c1[nH]c1ccc(O)cc12 | 1.09 µg/mL | 0.0638 µg/mL |  | 0.271 µg/mL | 0.167 µg/mL |  | 0.303 µg/mL |  |  |  | 0.073 µg/mL | 0.148 µg/mL | 0.0458 µg/mL (≈ 0.174 µM) | 0.0181 µg/mL | 
10 | CCn1c(=O)c2nc(SC)sc2n(-c2ccccc2)c1=S | 35.4 µM | > 100 µM | > 100 µM | > 100 µM | > 100 µM | > 100 µM | > 100 µM | > 100 µM |  | > 100 µM |  |  |  |  | 
11 | Cc1cc2c3ccccc3n3c2c2c1OC1(C)CCC(C2C1)C3(C)C (centres undefined) | > 25 µM | > 25 µM | > 25 µM | > 25 µM |  | > 25 µM | > 25 µM |  |  |  |  |  |  |  | 
12 | COc1ccc(N2C(=O)[C@@H]3[C@@H]4CC(C)CC[C@@H]4c4c([nH]c5ccccc45)[C@@H]3C2=O)cc1 (some centres undefined) | > 55.9 µM | 32.5 µM | > 100 µM | > 100 µM | 45 µM | > 100 µM | 37 µM |  |  |  |  |  |  |  | 
13 | Cc1ccc(-c2ccc3c(c2)Sc2ccccc2O3)n1C | > 68.5 µM | 7.88 µM | 50 µM | > 43.2 µM | 0.799 µM | 39.1 µM | > 100 µM |  |  | > 100 µM |  |  |  |  | 
14 | COC(=O)CC(=O)OC1C[C@@H]2CCC3C(C)(C)CCC[C@]3(C)C23CC[C@@]1(C)C3 (some centres undefined) | 39.8 µM | 31.3 µM | 32.7 µM | 33.9 µM | 34.5 µM | 31.7 µM | 32.5 µM |  |  |  |  |  |  |  | 
15 | CCOC(=O)c1c(NS(=O)(=O)c2ccccc2)sc2c1CCCC2 | > 100 µM | > 100 µM |  | > 100 µM | > 100 µM | > 100 µM |  |  | > 100 µM | > 100 µM |  |  |  |  | 
16 | CN(C)CCCn1c(-c2ccc(Br)cc2)csc1=Nc1ccccc1 | 30.2 µM | 70.9 µM |  | 26.4 µM | 25.4 µM |  | 38 µM | 61.5 µM | 31.6 µM |  |  |  |  |  | 
17 | CCN(CC)C(=O)Cc1[nH][nH]c(=O)c1C(=O)N(CC)CC | > 100 µM | > 100 µM | > 100 µM | > 100 µM | > 100 µM |  | > 100 µM |  |  |  |  |  |  |  | 
18 | c1cc(CSP234N5CCN2CCN3CCN4CC5)cc(CSP234N5CCN2CCN3CCN4CC5)c1 | 39.3 µM | > 100 µM |  | 47.1 µM | 46.2 µM | 45.5 µM | > 100 µM | 59.3 µM | 51.6 µM | > 100 µM |  |  |  |  | 
19 | C1CCC(CC2CCC(NC3=NCCO3)CC2)CC1 (centres undefined) | 35.9 µM | 42.5 µM | 29.7 µM | 32.7 µM | 36 µM | 33.7 µM | 48.2 µM | 32.3 µM |  | 54.3 µM |  |  |  |  | 

Row | Compound | TGI [1] | TGI [2] | TGI [3] | TGI [4] | TGI [5] | TGI [6] | TGI [7] | TGI [8] | TGI [9] | TGI [10] | GI50 [1] | GI50 [7] | GI50 [4] | GI50 [5] | GI50 [9]
20 | Cc1cc2nc3c(N)nn(CCCN(C)C)c3nc2cc1C | > 100 µM | > 100 µM |  | > 100 µM | > 100 µM | > 100 µM | > 100 µM | > 100 µM | > 100 µM | > 100 µM |  |  |  |  | 
21 | C/C(=C\COP(=O)(O)OP(=O)(O)O)CC/C=C(\C)CNc1c(F)c(F)c(F)c(F)c1F | > 100 µM | > 100 µM | > 100 µM | > 100 µM | > 100 µM | > 100 µM | > 100 µM | > 100 µM |  | > 100 µM |  |  |  |  | 
22 | COC1=CC(=O)C2(C=C1OC)OC[C@H]1Oc3c(ccc4c3C=CC(C)(C)O4)C(=O)[C@H]12 (some centres undefined) | > 100 µM |  | > 100 µM | > 100 µM |  |  |  |  |  |  |  |  |  |  | 
23 | C#C[C@]1(O)CC[C@H]2[C@@H]3CCC4=C/C(=N/OC(=O)c5cccc6cc7ccccc7nc56)CC[C@@H]4[C@H]3CC[C@@]21CC |  | > 100 µM |  | > 100 µM |  | > 100 µM | > 100 µM | > 100 µM | > 100 µM | > 100 µM |  |  |  |  | 
24 | O=C1C=C2SC3C[C@@]24CC1(O)[N+]1=c2c4c(c(O)c4c2=C(C=N4)CC1)N3 | 3.48 µM | 2 µM |  | 2.91 µM | 2.95 µM | 2.91 µM | 2.53 µM |  |  |  |  |  |  |  | 
25 | CCCOC(=O)CCC(NC(=O)c1ccc(Nc2nc3ccccc3nc2-c2cccs2)cc1)C(=O)OCCC (centres undefined) | > 100 µM | > 100 µM | 88.9 µM | > 100 µM | > 100 µM | > 100 µM | > 100 µM |  |  |  |  |  |  |  | 
26 | COc1ccc(/C=C(\C#N)c2ccccn2)cc1OC | 82.2 µM | > 100 µM | > 100 µM | > 100 µM | 85.3 µM | > 100 µM | > 100 µM |  | 45.4 µM |  |  |  |  |  | 
27 | O=S(c1ccc(O)cc1)c1ccc(O)cc1 | > 100 µM |  | > 100 µM | > 100 µM | > 100 µM | > 100 µM | > 100 µM |  |  |  |  |  |  |  | 
28 | O=C(OC[C@H]1C[C@H]2C(=O)OCCC[C@H]2O1)c1ccccc1 | > 100 µM | > 100 µM |  | > 100 µM | > 100 µM | > 100 µM | > 100 µM | > 100 µM |  | > 100 µM |  |  |  |  | 
29 | C=CCSC1=N/C(=C\c2ccc(C)cc2)C(=O)N1CC=C | 84.4 µM | 28.2 µM |  | 69.1 µM | > 100 µM | 27.3 µM | > 100 µM | 98.8 µM | 81.6 µM | 78.7 µM |  |  |  |  | 
30 | O=C(Cn1c(=O)oc2ccccc21)N(c1ccccc1)c1ccccc1 | > 100 µM | > 100 µM | > 100 µM | > 100 µM | > 100 µM | > 100 µM |  | > 100 µM | > 100 µM |  |  |  |  |  | 
31 | O=C1c2cccc3cc([N+](=O)[O-])cc(c23)C(=O)N1c1ccc(OCCN2CCCC2)cc1 | 27.1 µM | > 100 µM | 30.9 µM | > 100 µM | 41.1 µM | 30.1 µM | 67.2 µM | 45.1 µM |  | > 100 µM |  |  |  |  | 
32 | COC(OC)c1cccc2c1C(=O)CCC1(CC2)OCCCCO1 | > 100 µM | > 100 µM | > 100 µM | > 100 µM | > 100 µM | > 100 µM | > 100 µM |  |  |  |  |  |  |  | 
33 | Cc1ccc2c(c1)CC1(Cc3cc(C)ccc3C1=O)C2=O | > 100 µM |  | > 100 µM |  | > 100 µM | > 100 µM | > 100 µM | > 100 µM |  | > 100 µM |  |  |  |  | 
34 | CN1C/C(=C\c2ccccc2)C2=NN(C(N)=S)[C@H](c3ccccc3)[C@@H]2C1 | > 100 µM | > 100 µM | > 100 µM | > 100 µM | > 100 µM |  | > 100 µM |  |  |  |  |  |  |  | 
35 | O=C1OCOC2(CCCC2)C1c1ccccc1 (centres undefined) | > 100 µM | > 100 µM | > 100 µM | > 100 µM | > 100 µM | > 100 µM | > 100 µM | > 100 µM |  | > 100 µM |  |  |  |  | 
36 | CC1(C)OCC(/C=C\C(O)CC2(C)OCCO2)CO1 (centres undefined) | > 100 µM | > 100 µM |  | > 100 µM | > 100 µM | > 100 µM | > 100 µM | > 100 µM | > 100 µM | > 100 µM |  |  |  |  | 
37 | C=CC[PH+](c1ccccc1)c1ccccc1.C=CC[PH+](c1ccccc1)c1ccccc1.[Pt+2].[S-]c1nc2ccccc2[nH]1.[S-]c1nc2ccccc2[nH]1 | 36.5 µM |  |  |  | 8.44 µM |  | > 100 µM |  | 5.54 µM |  | 2.58 µM | 2.56 µM |  | 2.82 µM | 2.11 µM
38 | CC(NC(CC12CC3CC(CC(C3)C1)C2)C(N)=O)c1ccccc1 (centres undefined) | 51.4 µM |  | 34.3 µM |  | 28.4 µM | 26.3 µM | 98.5 µM | 41.1 µM |  | > 100 µM |  |  |  |  | 
